Measured values published in ChEMBL document CHEMBL1151110, “Biosynthesis of staurosporine, 1. 1H- and 13C-NMR assignments” (J Nat Prod, 1988).

Assay: Acute toxicity in ip dosed mouse
Assay type: organism-based
Conditions: in vivo

Work on CN[C@@H]1C[C@H]2O[C@@](C)([C@@H]1OC)n1c3ccccc3c3c4c(c5c6ccccc6n2c5c31)C(=O)NC4.Cl yielded an LD50 of 6.6 mg/kg.
